In patent US12246022B2, “Compositions and methods for treating, preventing or reversing age associated inflammation and disorders” (BROWN UNIVERSITY, priority 2019, dated 2025):
Read-outs that look alike come from different tables or passages of the source.

Experiments:
human LINE-1 [1] = experiment: Human LINE-1 retrotransposition assay, related experiments with islatravir (pYX017, HeLa cells, Tables 12 and 13); format: cell-based
Procedure: In related experiments, islatravir and other compounds were tested for inhibition of retrotransposition activity of human LINE-1 in HeLa cells according to the following procedure.
HeLa cervical cancer cells were cultivated at 37° C. in a humidified 5% CO2 incubator in Dulbecco's Modified Eagle's Medium (DMEM)—high glucose, with 4500 mg/L glucose, L-glutamine, sodium pyruvate and sodium bicarbonate (Sigma), supplemented with 10% of heat inactivated fetal bovine serum (Thermo Fisher).
Assays were performed using reporter plasmid pYX017 as described (Xie, et al., 2011) with several modifications. The reporter assay was performed in 96-well white optical bottom plates. HeLa cells were seeded in wells 24 h prior to transfection and compound treatment so that cells were approximately 30% confluent on the day of transfection. Different cell plating densities were tested and a density of 2×10^3 cells was determined to be optimal.
Compounds were resuspended in DMSO. Serial dilutions (1:3) were prepared in DMSO. Medium containing different concentrations of the compounds were prepared by adding 2 μl of the compound dilution to 1 ml of the culture medium. The final concentration of DMSO in the medium was 0.2%.
FuGENE® HD transfection reagent (Promega, E2311, Lot 382574 and Lot 397842) was used to transfect the plasmids into the cells. The transfection reagent: DNA mixture was prepared in OpiMEM (Thermo Fisher) according to manufacturer's instructions. Different ratios of transfection reagent to DNA were tested and a ratio of 3:1 was determined to be optimal. Culture medium was removed from the cells and discarded. The transfection reagent: DNA mixture (5 μl) was mixed with the compound containing medium (100 μl/well) and this was added onto the cells of each well. Cells were incubated at 37° C./5% CO2 for different incubation time. A 72 h incubation time was determined to be optimal.
Luciferase reporter activity was quantified with the Dual-Luciferase® Reporter Assay System (Promega) according to manufacturer's instructions for multiwell plates except that cells were lysed directly on the multiwell plate with 30 μl of the passive lysis buffer (PLB) for 20 min at room temperature, with gentle shaking to ensure complete cell lysis.
Firefly and Renilla luciferase signals were measured using a SpectraMax i3x Multi-Mode Microplate Reader. Integration times of 100 ms and 10 ms were used to measure the Firefly and Renilla signals respectively. Relative L1 activity is calculated as Firefly/Renilla *1000 or Firefly/Renilla *10,000. Dose response inhibition data were fit to a four parameter logistic equation using non-linear regression (using Graphpad Prism 8), to determine IC50 values for each inhibitor.

[2] = Table 13 Comparative Studies; cited from earlier work
[3] = Comparative studies: intracellular drug concentration relative to LINE-1 IC50 and huCSF/Plasma ratio; conditions: Table 13 Comparative Studies
mouse LINE-1 = experiment: Mouse LINE-1 retrotransposition assay (dual luciferase pYX016 reporter, HeLa cells); format: cell-based
Procedure: Elvucitabine was obtained by custom synthesis. […] HeLa cervical cancer cells were cultivated at 37° C. in a humidified 5% CO2 incubator in Dulbecco's Modified Eagle's Medium (DMEM)-high glucose, with 4500 mg/L glucose, L-glutamine, sodium pyruvate and sodium bicarbonate (Sigma), supplemented with 10% of heat inactivated fetal bovine serum (Thermo Fisher). Assays were performed as described in Xie et al., 2011^151 with several modifications. The reporter assay was performed in 96 well white Optical bottom plates. 6000 HeLa cells were seeded in each well 24 hours prior transfection and compound treatment. All compounds were resuspended in DMSO. Stock solution concentrations varied from 50 mM to 1.25 mM depending of the solubility of the compound. Serial dilutions (1:3) were prepared in DMSO. Ten different concentrations of each compound were tested in triplicate. Medium containing different concentrations of the compounds were prepared by adding 2 μL of the compound dilution to 1 mL of the culture medium. The final concentration of DMSO in the medium was 0.2%. FuGENE® HD transfection reagent (Promega) was used to transfect the plasmid pYX016 into the cells. The transfection mix was prepared in OpiMEM (Thermo Fisher) using a reagent to DNA ratio of 3.5:1 according to manufacturer's instructions. Culture medium was removed from the cells and discarded. The transfection mix (5 μL) was mixed with the compound containing medium (100 μL/well) and this was added onto the cells of each well. Cells were incubated for 48H at 37° C./5% CO2. Luciferase reporter activity was quantified with the Dual-Luciferase® Reporter Assay System (Promega) according to manufacturer's instructions for multiwell plates with the following modification: Cells were lysed directly on the multiwell plate with 30 μL of the passive lysis buffer (PLB) for 20 min at room temperature, with gentle shaking to ensure complete cell lysis (instead of 20 μL of PLB for 15 min). Firefly and Renilla luciferase signals were measured using a SpectraMax i3x Multi-Mode Microplate Reader. […] Relative L1 activity was calculated as Firefly/Renilla *10,000. […] The experiment was performed twice, independently.

human LINE-1 [4] = experiment: Human LINE-1 retrotransposition assay (dual luciferase pYX017 reporter, HeLa cells, Table 11); format: cell-based
Procedure: Assays were performed as described in Xie et al., 2011^151 with several modifications. The reporter assay was performed in 96 well white Optical bottom plates. 6000 HeLa cells were seeded in each well 24 hours prior transfection and compound treatment. All compounds were resuspended in DMSO. Stock solution concentrations varied from 50 mM to 1.25 mM depending of the solubility of the compound. Serial dilutions (1:3) were prepared in DMSO. Ten different concentrations of each compound were tested in triplicate. Medium containing different concentrations of the compounds were prepared by adding 2 μL of the compound dilution to 1 mL of the culture medium. The final concentration of DMSO in the medium was 0.2%. FuGENE® HD transfection reagent (Promega) was used to transfect the plasmid pYX016 into the cells. The transfection mix was prepared in OpiMEM (Thermo Fisher) using a reagent to DNA ratio of 3.5:1 according to manufacturer's instructions. Culture medium was removed from the cells and discarded. The transfection mix (5 μL) was mixed with the compound containing medium (100 μL/well) and this was added onto the cells of each well. Cells were incubated for 48H at 37° C./5% CO2. Luciferase reporter activity was quantified with the Dual-Luciferase® Reporter Assay System (Promega) according to manufacturer's instructions for multiwell plates with the following modification: Cells were lysed directly on the multiwell plate with 30 μL of the passive lysis buffer (PLB) for 20 min at room temperature, with gentle shaking to ensure complete cell lysis (instead of 20 μL of PLB for 15 min). Firefly and Renilla luciferase signals were measured using a SpectraMax i3x Multi-Mode Microplate Reader. […] Relative L1 activity was calculated as Firefly/Renilla *10,000. […] The experiment was performed twice, independently. […] Because the human construct yields a lower signal, compounds were incubated with cells for 72 hours instead of 48 hours, and cells were seeded at a density of 2000/well instead of 6000/well. In addition, the transfection reagent to DNA ratio was 2:1 instead of 3.5:1.

human LINE-1 [5] = experiment: Islatravir Inhibitory Quotient (IQ) estimate for human LINE-1 in PBMC and brain; conditions: PBMC, intracellular EFdA-TP, used for IQ
HIV WT = conditions: read-out: IC50 for HIV (intracellular EFdA-TP); cited from earlier work
[6] = in vivo; cited from earlier work
[7] = Homo sapiens, HeLa, Table 13 Comparative Studies, read-out: Human Line-1 IC50
[8] = pYX016, 48 H post-transfection, read-out: Mouse L1 activity inhibition IC50, Exp. 1
[9] = pYX016, 48 H post-transfection, read-out: Mouse L1 activity inhibition IC50, Exp. 2
[10] = pYX016, 48 H, n = 2, read-out: Mouse L1 activity inhibition IC50, Average
[11] = Homo sapiens, HeLa cells, pYX017, 72 h, n = 3, read-out: Human LINE-1 IC50, Average
[12] = Homo sapiens, HeLa cells, pYX017, 72 h, read-out: Human LINE-1 IC50, Exp.1
[13] = Homo sapiens, HeLa cells, pYX017, 72 h, read-out: Human LINE-1 IC50, Exp.2
[14] = Homo sapiens, HeLa cells, pYX017, 72 h, read-out: Human LINE-1 IC50, Exp. 3

Row | Compound | IC50 (mouse LINE-1; [8]) [µM] | IC50 (mouse LINE-1; [9]) [µM] | IC50 (mouse LINE-1; [10]) [µM] | IC50 (human LINE-1 [1]; [11]) [µM] | IC50 (human LINE-1 [1]; [12]) [µM] | IC50 (human LINE-1 [1]; [13]) [µM] | IC50 (human LINE-1 [1]; [14]) [µM] | other results
1 | Nc1nc(NC2CC2)c2ncn([C@H]3C=C[C@@H](CO)C3)c2n1 [Abacavir (ABC), Abacavir] | – | – | – | – | – | – | – | IC50 (human LINE-1 [1]; [7]): 17.1 µM; huCSF/Plasma [2]: 0.67; Human Line-1 Intracellular drug conc. (% of IC-50 conc.) [3]: 106%
2 | Nc1ccn([C@H]2CO[C@@H](CO)S2)c(=O)n1 [Apricitabine] | 4.44 | 3.83 | 4.13 | – | – | – | – | –
3 | O=C(NCc1c(F)cc(F)cc1F)c1cn2c(c(O)c1=O)C(=O)N1[C@H]3CC[C@H](C3)O[C@@H]1C2 [Bictegravir] | – | – | – | > 12.4 | 12.4 | > 50 | – | –
4 | C#C[C@@]1(CO)C=C[C@H](n2cc(C)c(=O)[nH]c2=O)O1 [Censavudine] | 0.118 | 0.105 | 0.112 | 0.1 | 0.13 | 0.12 | 0.05 | IC50 (mouse LINE-1; read-out: mouse L1 inhibition IC50): ~0.1 µM; IC50 (human LINE-1 [4]; pYX017, 72 H post-transfection, read-out: Human L1 activity inhibition IC50, Exp. 1): 0.053 µM; IC50 (human LINE-1 [4]; pYX017, 72 H post-transfection, read-out: Human L1 activity inhibition IC50, Exp. 2): 0.092 µM; IC50 (human LINE-1 [4]; pYX017, 72 H, n = 2, read-out: Human L1 activity inhibition IC50, Average): 0.072 µM; IC50 (human LINE-1 [4]; read-out: human L1 inhibition IC50): ~0.1 µM
5 | C[C@@H]1CCO[C@H]2Cn3cc(C(=O)NCc4ccc(F)cc4F)c(=O)c(O)c3C(=O)N12 [Dolutegravir sodium] | – | – | – | > 9.38 | 9.38 | – | > 20 | –
6 | C#C[C@]1(COP(=O)(O)OP(=O)(O)OP(=O)(O)O)O[C@@H](n2cnc3c(N)nc(F)nc32)C[C@@H]1O [EFdA-TP] | – | – | – | – | – | – | – | EC50 (human LINE-1 [5]): 0.316 µM; IC50 (HIV WT): 0.049 µM; intracellular T-half in human PBMC [6]: 78.5 to 128 h
7 | O=C1Nc2ccc(Cl)cc2[C@@](C#CC2CC2)(C(F)(F)F)O1 [Efavirenz] | – | – | – | > 0.25 | > 50 | > 0.25 | – | –
8 | Cc1ccnc2c1NC(=O)c1cccnc1N2C1CC1 [Nevirapine] | – | – | – | > 50 | > 50 | > 50 | – | –
9 | Cc1nnc(C(=O)NC(C)(C)c2nc(C(=O)NCc3ccc(F)cc3)c(O)c(=O)n2C)o1 [Raltegravir potassium] | – | – | – | > 9.86 | 9.86 | > 50 | 49.3 | –
10 | Cc1cc(/C=C/C#N)cc(C)c1Nc1ccnc(Nc2ccc(C#N)cc2)n1 [Rilpivirine] | – | – | – | > 15.1 | > 50 | 15.1 | 45.5 | –
11 | Cc1cn([C@H]2C=C[C@@H](CO)O2)c(=O)[nH]c1=O [Stavudine] | 1.59 | 1.86 | 1.72 | – | – | – | – | IC50 (human LINE-1 [1]; [7]): 0.75 µM; huCSF/Plasma [2]: 0.2; Human Line-1 Intracellular drug conc. (% of IC-50 conc.) [3]: 63%
12 | CC(C)OC(=O)OCOP(=O)(CO[C@H](C)Cn1cnc2c(N)ncnc21)OCOC(=O)OC(C)C [Tenofovir Disiproxil, tenofovir disoproxil] | 0.157 | 0.151 | 0.154 | – | – | – | – | IC50 (human LINE-1 [1]; [7]): 0.2 µM
13 | C[C@H](Cn1cnc2c(N)ncnc21)OCP(=O)(O)O [Tenofovir] | 3.47 | 4.02 | 3.75 | – | – | – | – | IC50 (human LINE-1 [1]; Table 13 Comparative Studies, read-out: Human Line-1 IC50): 2.77 µM
14 | Cc1cn([C@H]2C[C@H](N=[N+]=[N-])[C@@H](CO)O2)c(=O)[nH]c1=O [Zidovudine] | – | – | – | 0.81 | 0.41 | 0.34 | 1.68 | –
